# From PubChem BioAssay (NCI)
# Values joined by “and” are separate entries in the source; they are usually repeats but may differ in a detail not shown here. Equal entries are not always repeated.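 Step 1: Grow cells in 96-well plates. Step 2: Expose to compound for 48 hours at 5 concentrations. Step 3: Interpolate endpoints linearly; if unreached, use highest concentration. At the GI50, growth is halved. TGI is the concentration that stops growth completely.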
# What was measured:
# Test in all cases: NCI tumour cell line growth inhibition, 48 h
# NCI-H23 lung = test system: NCI-H23 lung
# SF-268 CNS = test system: SF-268 CNS
# U251 CNS = test system: U251 CNS
# HT29 colon = test system: HT29 colon
# 786-0 renal = test system: 786-0 renal
# HCT-116 colon = test system: HCT-116 colon
# OVCAR-8 ovarian = test system: OVCAR-8 ovarian
# NCI/ADR-RES ovarian = test system: NCI/ADR-RES ovarian
# UACC-62 melanoma = test system: UACC-62 melanoma
# ACHN renal = test system: ACHN renal
# BT-549 breast = test system: BT-549 breast
smiles,measurement,setting,value
O=C(CSCC(=O)N/N=C/c1cc(I)cc(I)c1O)N/N=C/c1cc(I)cc(I)c1O,TGI,NCI-H23 lung,25.3 µM
same,TGI,SF-268 CNS,22.6 µM
same,TGI,U251 CNS,26.2 µM
same,TGI,HT29 colon,> 100 µM
same,TGI,786-0 renal,22.2 µM
same,TGI,HCT-116 colon,33.9 µM
same,TGI,OVCAR-8 ovarian,59.8 µM
same,TGI,NCI/ADR-RES ovarian,59.9 µM
same,TGI,UACC-62 melanoma,31.9 µM
same,TGI,ACHN renal,32.2 µM
COc1ccc2oc(=N)c(C(=O)Nc3cccc4ccccc34)cc2c1,TGI,NCI-H23 lung,> 100 µM
same,TGI,SF-268 CNS,> 100 µM
same,TGI,U251 CNS,50.2 µM
same,TGI,HT29 colon,> 100 µM
same,TGI,786-0 renal,28 µM
same,TGI,HCT-116 colon,> 100 µM
same,TGI,NCI/ADR-RES ovarian,> 100 µM
same,TGI,UACC-62 melanoma,17.1 µM
same,TGI,BT-549 breast,> 100 µM
same,TGI,ACHN renal,> 100 µM
COc1ccc(Cn2c(C)nc3c2C(=O)c2ccccc2C3=O)cc1,TGI,NCI-H23 lung,16.5 µM
same,TGI,SF-268 CNS,68.1 µM
same,TGI,U251 CNS,> 75 µM
same,TGI,HT29 colon,> 75 µM
same,TGI,786-0 renal,40 µM
same,TGI,HCT-116 colon,13 µM
same,TGI,OVCAR-8 ovarian,> 75 µM
same,TGI,UACC-62 melanoma,14 µM
same,TGI,ACHN renal,48.9 µM
COCOc1ccc(C(=O)C(C)c2ccc(OCOC)cc2OCOC)c(O)c1 (stereo not drawn),TGI,NCI-H23 lung,> 100 µM
same,TGI,SF-268 CNS,> 100 µM
same,TGI,U251 CNS,> 100 µM
same,TGI,HT29 colon,> 100 µM
same,TGI,786-0 renal,> 100 µM
same,TGI,HCT-116 colon,> 100 µM
same,TGI,OVCAR-8 ovarian,> 100 µM
same,TGI,UACC-62 melanoma,> 100 µM
same,TGI,BT-549 breast,> 100 µM
same,TGI,ACHN renal,> 100 µM
O=C1CSC2(CC(/C=C/c3ccccc3)=NN2c2cccc(S(=O)(=O)O)c2)N1c1nc2ccccc2s1 (stereo not drawn),TGI,NCI-H23 lung,56.7 µM
same,TGI,U251 CNS,42.1 µM
same,TGI,HT29 colon,> 100 µM
same,TGI,786-0 renal,33 µM
same,TGI,HCT-116 colon,> 100 µM
same,TGI,OVCAR-8 ovarian,35.8 µM
same,TGI,NCI/ADR-RES ovarian,> 100 µM
same,TGI,UACC-62 melanoma,45.2 µM
same,TGI,BT-549 breast,52.8 µM
same,TGI,ACHN renal,> 100 µM
CN(C)c1nc2sc3c(c2c(=O)o1)CCCC3,TGI,NCI-H23 lung,> 100 µM
same,TGI,U251 CNS,> 100 µM
same,TGI,HT29 colon,> 100 µM
same,TGI,786-0 renal,> 100 µM
same,TGI,HCT-116 colon,> 100 µM
same,TGI,OVCAR-8 ovarian,> 100 µM
same,TGI,NCI/ADR-RES ovarian,> 100 µM
same,TGI,UACC-62 melanoma,> 100 µM
same,TGI,BT-549 breast,65.5 µM
same,TGI,ACHN renal,> 100 µM
COC(=O)c1c2c(cc3c1CC1(Cc4ccccc4C1=O)C3)CCC2 (stereo not drawn),TGI,NCI-H23 lung,> 100 µM
same,TGI,SF-268 CNS,> 100 µM
same,TGI,U251 CNS,> 100 µM
same,TGI,HT29 colon,96.9 µM
same,TGI,786-0 renal,> 100 µM
same,TGI,HCT-116 colon,> 100 µM
same,TGI,OVCAR-8 ovarian,> 100 µM
same,TGI,NCI/ADR-RES ovarian,79.3 µM
same,TGI,ACHN renal,> 100 µM
O=C1c2ccccc2C(=O)N1n1c(Cc2ccccc2)n[nH]c1=O,TGI,NCI-H23 lung,> 100 µM
same,TGI,U251 CNS,> 100 µM
same,TGI,HT29 colon,> 100 µM
same,TGI,786-0 renal,> 100 µM
same,TGI,HCT-116 colon,> 100 µM
same,TGI,OVCAR-8 ovarian,> 100 µM
same,TGI,NCI/ADR-RES ovarian,> 100 µM
same,TGI,UACC-62 melanoma,> 100 µM
same,TGI,BT-549 breast,> 100 µM
same,TGI,ACHN renal,> 100 µM
c1csc(-c2ccc(-c3ccc(-c4ccc(-c5cccs5)s4)s3)s2)c1,TGI,NCI-H23 lung,> 100 µM
same,TGI,SF-268 CNS,> 100 µM
same,TGI,U251 CNS,> 100 µM
same,TGI,HT29 colon,> 100 µM
same,TGI,786-0 renal,> 100 µM
same,TGI,HCT-116 colon,> 100 µM
same,TGI,OVCAR-8 ovarian,> 100 µM
same,TGI,NCI/ADR-RES ovarian,> 100 µM
same,TGI,UACC-62 melanoma,> 100 µM
same,TGI,ACHN renal,> 100 µM
COc1c2c(c3c(c1C1OC(C)[C@@H](C)O1)CC(C)(C)O3)C(=O)c1ccccc1C2=O (stereo partly drawn),TGI,NCI-H23 lung,> 100 µM
same,TGI,SF-268 CNS,> 100 µM
same,TGI,U251 CNS,> 100 µM
same,TGI,HT29 colon,> 100 µM
same,TGI,786-0 renal,> 100 µM
same,TGI,HCT-116 colon,> 100 µM
same,TGI,OVCAR-8 ovarian,> 100 µM
same,TGI,UACC-62 melanoma,> 100 µM
same,TGI,ACHN renal,> 100 µM
CO/C(=N\N=C\c1cc(OC)ccc1OC)c1ccncc1,TGI,NCI-H23 lung,> 10 µM
same,TGI,SF-268 CNS,> 10 µM
same,TGI,U251 CNS,> 10 µM
same,TGI,786-0 renal,> 10 µM
same,TGI,HCT-116 colon,> 10 µM
same,TGI,OVCAR-8 ovarian,> 10 µM
same,TGI,NCI/ADR-RES ovarian,> 10 µM
same,TGI,ACHN renal,> 10 µM
CCN(CC)CCNC(=O)c1ccccc1NC(=O)C(=O)Nc1ccccc1C(=O)NCCN(CC)CC,TGI,NCI-H23 lung,> 100 µM
same,TGI,SF-268 CNS,> 100 µM
same,TGI,U251 CNS,> 100 µM
same,TGI,HT29 colon,> 100 µM
same,TGI,786-0 renal,42.6 µM
same,TGI,HCT-116 colon,43.3 µM
same,TGI,OVCAR-8 ovarian,> 100 µM
same,TGI,UACC-62 melanoma,> 100 µM
same,TGI,ACHN renal,> 100 µM
CCC(C)[C@@H](NCc1ccccc1)[C@H](OCc1ccccc1)[C@@H]1COC(C)(C)O1 (stereo partly drawn),TGI,NCI-H23 lung,44.3 µM
same,TGI,SF-268 CNS,68.6 µM
same,TGI,U251 CNS,51.1 µM
same,TGI,HT29 colon,23.7 µM
same,TGI,786-0 renal,46.3 µM
same,TGI,HCT-116 colon,29.2 µM
same,TGI,OVCAR-8 ovarian,45.4 µM
same,TGI,NCI/ADR-RES ovarian,55.3 µM
same,TGI,UACC-62 melanoma,42.3 µM
same,TGI,ACHN renal,49.7 µM
Cc1nc2c(=S)[nH]ncc2[nH]1,TGI,NCI-H23 lung,> 100 µM
same,TGI,U251 CNS,> 100 µM
same,TGI,HT29 colon,> 100 µM
same,TGI,786-0 renal,> 100 µM
same,TGI,HCT-116 colon,> 100 µM
same,TGI,OVCAR-8 ovarian,> 100 µM
same,TGI,NCI/ADR-RES ovarian,> 100 µM
same,TGI,UACC-62 melanoma,> 100 µM
same,TGI,BT-549 breast,> 100 µM
same,TGI,ACHN renal,> 100 µM
O=C1N[C@H]2c3c(Cl)sc(Cl)c3/C(=N/O)[C@H]2O1,TGI,SF-268 CNS,> 100 µM
same,TGI,U251 CNS,> 100 µM
same,TGI,HT29 colon,> 100 µM
same,TGI,786-0 renal,> 100 µM
same,TGI,HCT-116 colon,> 100 µM
same,TGI,OVCAR-8 ovarian,> 100 µM
same,TGI,NCI/ADR-RES ovarian,> 100 µM
same,TGI,UACC-62 melanoma,> 100 µM
same,TGI,BT-549 breast,> 100 µM
same,TGI,ACHN renal,> 100 µM
O=C(CP(c1ccccc1)c1ccccc1)c1cccc(C(=O)CP(c2ccccc2)c2ccccc2)c1,TGI,SF-268 CNS,> 100 µM
same,TGI,U251 CNS,> 100 µM
same,TGI,HT29 colon,> 100 µM
same,TGI,786-0 renal,> 100 µM
same,TGI,HCT-116 colon,> 100 µM
same,TGI,OVCAR-8 ovarian,> 100 µM
same,TGI,NCI/ADR-RES ovarian,> 100 µM
same,TGI,UACC-62 melanoma,> 100 µM
same,TGI,ACHN renal,> 100 µM
CC1=NN(c2nc(N)nc(-c3ccccc3S(N)(=O)=O)n2)C(C)(C)C1,TGI,NCI-H23 lung,> 100 µM
same,TGI,SF-268 CNS,> 100 µM
same,TGI,U251 CNS,> 100 µM
same,TGI,HT29 colon,> 100 µM
same,TGI,786-0 renal,> 100 µM
same,TGI,HCT-116 colon,> 100 µM
same,TGI,OVCAR-8 ovarian,> 100 µM
same,TGI,NCI/ADR-RES ovarian,52.5 µM
same,TGI,ACHN renal,82.1 µM
CC(=O)OCC1OC(Nc2[nH]c(=O)n(C)c(=O)c2-c2csc(N)n2)C(OC(C)=O)C(OC(C)=O)C1OC(C)=O (stereo not drawn),TGI,NCI-H23 lung,> 100 µM
same,TGI,SF-268 CNS,> 100 µM
same,TGI,U251 CNS,> 100 µM
same,TGI,HT29 colon,> 100 µM
same,TGI,786-0 renal,> 100 µM
same,TGI,HCT-116 colon,> 100 µM
same,TGI,OVCAR-8 ovarian,> 100 µM
same,TGI,UACC-62 melanoma,> 100 µM
same,TGI,ACHN renal,> 100 µM
C1=C(c2ccccc2)CN(c2ccccc2)OC1,TGI,NCI-H23 lung,> 100 µM
same,TGI,SF-268 CNS,> 100 µM
same,TGI,U251 CNS,> 100 µM
same,TGI,HT29 colon,> 100 µM
same,TGI,786-0 renal,> 100 µM
same,TGI,UACC-62 melanoma,> 100 µM
same,TGI,ACHN renal,> 100 µM
O=C1NC(N/N=C\C(O)C(O)C(O)CO)=N/C1=C/c1ccccc1 (stereo not drawn),TGI,NCI-H23 lung,> 100 µM
same,TGI,SF-268 CNS,> 100 µM
same,TGI,U251 CNS,> 100 µM
same,TGI,HT29 colon,> 100 µM
same,TGI,786-0 renal,> 100 µM
same,GI50,HCT-116 colon,> 100 µM and 37.5 µM
same,TGI,HCT-116 colon,> 100 µM
same,TGI,OVCAR-8 ovarian,> 100 µM
same,TGI,NCI/ADR-RES ovarian,> 100 µM
same,GI50,BT-549 breast,> 100 µM and 27.4 µM
same,TGI,BT-549 breast,> 100 µM and 99.8 µM
same,TGI,ACHN renal,> 100 µM
COc1ccc(/C=C2\CN(C)Cc3c2nc(N)nc3-c2ccc(OC)cc2)cc1,TGI,NCI-H23 lung,> 100 µM
same,TGI,SF-268 CNS,> 100 µM
same,TGI,U251 CNS,> 100 µM
same,TGI,786-0 renal,> 100 µM
same,TGI,HCT-116 colon,> 100 µM
same,TGI,OVCAR-8 ovarian,> 100 µM
same,TGI,UACC-62 melanoma,> 100 µM
same,TGI,ACHN renal,> 100 µM
